Measurements reported in article PMC6748410, “A phase 2 study of an oral mTORC1/mTORC2 kinase inhibitor (CC-223) for non-pancreatic neuroendocrine tumors with or without carcinoid symptoms” (PLoS ONE, 2019).

Test: Treatment-related adverse events and tolerability (CTCAE v4.0) in patients with NET
Format: in vivo
Description: CC-223 capsules were taken orally once daily in continuous 28-day cycles. An initial cohort started CC-223 at a dose of 45 mg; this was the maximum tolerated dose (MTD) established in phase 1 but, after observing a high rate of dose adjustments due to toxicity among patients with NET, a second cohort started CC-223 at 30 mg. To mitigate toxicity, dosage could be adjusted with either short interruptions, dose level reductions, or every-other-day administration. Treatment was permanently discontinued for disease progression, unmanageable toxicity, patient withdrawal of consent, or other reasons specified by the protocol as requiring study withdrawal.
Baseline assessments were completed within 28 days prior to first dose of CC-223. Drug tolerability was continuously evaluated until 28 days after the last dose, using clinical event and laboratory test monitoring comprising a conventional hematologic and coagulation (if taking anti-coagulants) panel; serum electrolytes; fasting blood glucose (this also included daily self-monitoring with finger stick samples for the first month and for longer if necessary), HbA1c, insulin, and c-peptide; liver enzymes; serum creatinine; and protein. Others included serum uric acid, amylase and lipase, lipoproteins, thyroid function tests, creatine kinase, and immunoglobulins including T-cell subsets (CD4+ and CD8+). We also performed serial triplicate electrocardiograms (ECGs), periodic left ventricular ejection fraction estimations (echo or multiple gated acquisition [MUGA]), regular physical exams and vital sign measurements (heart rate, blood pressure, respiratory rate, and temperature). Adverse events were coded with Medical Dictionary for Regulatory Activities (MedDRA) version 19.0. Severity of adverse events was classified using the National Cancer Institute Common Terminology Criteria for Adverse Events (CTCAE) version 4.0. A safety review committee provided study oversight.

[1] = 30 mg starting dose (n = 23), any grade
[2] = 45 mg starting dose (n = 24), any grade

CO[C@H]1CC[C@H](N2C(=O)CNc3ncc(-c4ccc(C(C)(C)O)nc4)nc32)CC1 [CC-223]
Patients requiring 1 dose reduction (30 mg group (n = 23)): 11 patients | Patients requiring 2 dose reductions (30 mg group (n = 23)): 7 patients | Patients requiring more than 2 dose reductions (30 mg group (n = 23)): 0 patients | Treatment-related adverse event: AST increased [1]: 3 (13.0) n (%) | Treatment-related adverse event: Abdominal pain [1]: 2 (8.7) n (%) | Treatment-related adverse event: Asthenia [1]: 7 (30.4) n (%) | Treatment-related adverse event: Blood creatinine increased [1]: 4 (17.4) n (%) | Treatment-related adverse event: Decreased appetite [1]: 4 (17.4) n (%) | Treatment-related adverse event: Dehydration [1]: 4 (17.4) n (%) | Treatment-related adverse event: Diarrhea [1]: 17 (73.9) n (%) | Treatment-related adverse event: Dry mouth [1]: 2 (8.7) n (%) | Treatment-related adverse event: Dysgeusia [1]: 3 (13.0) n (%) | Treatment-related adverse event: Fatigue [1]: 17 (73.9) n (%) | Treatment-related adverse event: Hyperglycemia [1]: 5 (21.7) n (%) | Treatment-related adverse event: Maculopapular rash [1]: 3 (13.0) n (%) | Treatment-related adverse event: Malaise [1]: 3 (13.0) n (%) | Treatment-related adverse event: Mucosal inflammation [1]: 3 (13.0) n (%) | Treatment-related adverse event: Nausea [1]: 6 (26.1) n (%) | Treatment-related adverse event: Pruritus [1]: 7 (30.4) n (%) | Treatment-related adverse event: Rash [1]: 6 (26.1) n (%) | Treatment-related adverse event: Rash macular [1]: 2 (8.7) n (%) | Treatment-related adverse event: Stomatitis [1]: 11 (47.8) n (%) | Treatment-related adverse event: Vomiting [1]: 2 (8.7) n (%) | Patients requiring 1 dose reduction (45 mg group (n = 24)): 3 patients | Patients requiring more than 2 dose reductions (45 mg group (n = 24)): 2 patients | Tolerability in the NET cohort (45 mg once daily): not well-tolerated | Treatment-related adverse event: AST increased [2]: 2 (8.3) n (%) | Treatment-related adverse event: Abdominal pain [2]: 3 (12.5) n (%) | Treatment-related adverse event: Asthenia [2]: 4 (16.7) n (%) | Treatment-related adverse event: Blood creatinine increased [2]: 3 (12.5) n (%) | Treatment-related adverse event: Decreased appetite [2]: 8 (33.3) n (%) | Treatment-related adverse event: Dehydration [2]: 4 (16.7) n (%) | Treatment-related adverse event: Diarrhea [2]: 19 (79.2) n (%) | Treatment-related adverse event: Dry mouth [2]: 5 (20.8) n (%) | Treatment-related adverse event: Dysgeusia [2]: 5 (20.8) n (%) | Treatment-related adverse event: Fatigue [2]: 14 (58.3) n (%) | Treatment-related adverse event: Hyperglycemia [2]: 8 (33.3) n (%) | Treatment-related adverse event: Maculopapular rash [2]: 9 (37.5) n (%) | Treatment-related adverse event: Malaise [2]: 4 (16.7) n (%) | Treatment-related adverse event: Mucosal inflammation [2]: 3 (12.5) n (%) | Treatment-related adverse event: Nausea [2]: 12 (50.0) n (%) | Treatment-related adverse event: Pruritus [2]: 12 (50.0) n (%) | Treatment-related adverse event: Rash [2]: 12 (50.0) n (%) | Treatment-related adverse event: Rash macular [2]: 4 (16.7) n (%) | Treatment-related adverse event: Stomatitis [2]: 14 (58.3) n (%) | Treatment-related adverse event: Vomiting [2]: 5 (20.8) n (%) | Patients with one or more serious adverse event related to CC-223 (8 of 47 patients): 17% | Patients who remained on the dose initially assigned (12 of 47 patients): 26% | Treatment-related adverse event: AST increased (Any dose (N = 47), Grade 3): 2 (4.3) n (%) | Treatment-related adverse event: Abdominal pain (Any dose (N = 47), Grade 3): 1 (2.1) n (%) | Treatment-related adverse event: Asthenia (Any dose (N = 47), Grade 3): 3 (6.4) n (%) | Treatment-related adverse event: Blood creatinine increased (Any dose (N = 47), Grade 3): 1 (2.1) n (%) | Treatment-related adverse event: Decreased appetite (Any dose (N = 47), Grade 3): 1 (2.1) n (%) | Treatment-related adverse event: Dehydration (Any dose (N = 47), Grade 3): 1 (2.1) n (%) | Treatment-related adverse event: Diarrhea (Any dose (N = 47), Grade 3): 18 (38.3) n (%) | Treatment-related adverse event: Dry mouth (Any dose (N = 47), Grade 3): 0 n (%) | Treatment-related adverse event: Dysgeusia (Any dose (N = 47), Grade 3): 0 n (%) | Treatment-related adverse event: Fatigue (Any dose (N = 47), Grade 3): 10 (21.3) n (%) | Treatment-related adverse event: Hyperglycemia (Any dose (N = 47), Grade 3): 0 n (%) | Treatment-related adverse event: Maculopapular rash (Any dose (N = 47), Grade 3): 3 (6.4) n (%) | Treatment-related adverse event: Malaise (Any dose (N = 47), Grade 3): 0 n (%) | Treatment-related adverse event: Mucosal inflammation (Any dose (N = 47), Grade 3): 0 n (%) | Treatment-related adverse event: Nausea (Any dose (N = 47), Grade 3): 1 (2.1) n (%) | Treatment-related adverse event: Pruritus (Any dose (N = 47), Grade 3): 2 (4.3) n (%) | Treatment-related adverse event: Rash (Any dose (N = 47), Grade 3): 1 (2.1) n (%) | Treatment-related adverse event: Rash macular (Any dose (N = 47), Grade 3): 1 (2.1) n (%) | Treatment-related adverse event: Stomatitis (Any dose (N = 47), Grade 3): 5 (10.6) n (%) | Treatment-related adverse event: Vomiting (Any dose (N = 47), Grade 3): 2 (4.3) n (%) | Treatment-related adverse event: AST increased (Any dose (N = 47), any grade): 5 (10.6) n (%) | Treatment-related adverse event: Abdominal pain (Any dose (N = 47), any grade): 5 (10.6) n (%) | Treatment-related adverse event: Asthenia (Any dose (N = 47), any grade): 11 (23.4) n (%) | Treatment-related adverse event: Blood creatinine increased (Any dose (N = 47), any grade): 7 (14.9) n (%) | Treatment-related adverse event: Decreased appetite (Any dose (N = 47), any grade): 12 (25.5) n (%) | Treatment-related adverse event: Dehydration (Any dose (N = 47), any grade): 8 (17.0) n (%) | Treatment-related adverse event: Diarrhea (Any dose (N = 47), any grade): 36 (76.6) n (%) | Treatment-related adverse event: Dry mouth (Any dose (N = 47), any grade): 7 (14.9) n (%) | Treatment-related adverse event: Dysgeusia (Any dose (N = 47), any grade): 8 (17.0) n (%) | Treatment-related adverse event: Fatigue (Any dose (N = 47), any grade): 31 (66.0) n (%) | Treatment-related adverse event: Hyperglycemia (Any dose (N = 47), any grade): 13 (27.7) n (%) | Treatment-related adverse event: Maculopapular rash (Any dose (N = 47), any grade): 12 (25.5) n (%) | Treatment-related adverse event: Malaise (Any dose (N = 47), any grade): 7 (14.9) n (%) | Treatment-related adverse event: Mucosal inflammation (Any dose (N = 47), any grade): 6 (12.8) n (%) | Treatment-related adverse event: Nausea (Any dose (N = 47), any grade): 18 (38.3) n (%) | Treatment-related adverse event: Pruritus (Any dose (N = 47), any grade): 19 (40.4) n (%) | Treatment-related adverse event: Rash (Any dose (N = 47), any grade): 18 (38.3) n (%) | Treatment-related adverse event: Rash macular (Any dose (N = 47), any grade): 6 (12.8) n (%) | Treatment-related adverse event: Stomatitis (Any dose (N = 47), any grade): 25 (53.2) n (%) | Treatment-related adverse event: Vomiting (Any dose (N = 47), any grade): 7 (14.9) n (%) | Most common TRAEs: asthenia (any grade, n = 47): 23% | Most common TRAEs: decreased appetite (any grade, n = 47): 26% | Most common TRAEs: diarrhea (any grade, n = 47): 77% | Most common TRAEs: fatigue (any grade, n = 47): 66% | Most common TRAEs: hyperglycemia (any grade, n = 47): 28% | Most common TRAEs: maculopapular rash (any grade, n = 47): 26% | Most common TRAEs: nausea (any grade, n = 47): 38% | Most common TRAEs: pruritus (any grade, n = 47): 40% | Most common TRAEs: rash (any grade, n = 47): 38% | Most common TRAEs: stomatitis (any grade, n = 47): 53% | Patients who reported at least one treatment-related adverse event (TRAE) (by investigator determination, n = 47): 98% | Patients with doses reduced for extended periods to levels as low as 15 mg (human, in vivo): 45% | Deaths on study due to treatment-related toxicity (n = 47): No patient died | Grade 3 or higher toxicity: diarrhea (n = 47): 38% | Grade 3 or higher toxicity: fatigue (n = 47): 21% | Grade 3 or higher toxicity: stomatitis (n = 47): 11% | Grade 4 or 5 toxicities among the most common adverse events (n = 47): no grade 4 or 5 toxicities reported | Patients who discontinued CC-223 because of toxicity (n = 47): 13% | Patients who experienced grade 3 or 4 treatment-related events (n = 47): 79% | Patients who required dose adjustments due to toxicity (n = 47): 85% | Toxicity causing discontinuation: decreased appetite (n = 47): 6% | Toxicity causing discontinuation: diarrhea (n = 47): 9% | Toxicity causing discontinuation: nausea (n = 47): 4% | Toxicity requiring dose adjustments: diarrhea (n = 47): 40% | Toxicity requiring dose adjustments: fatigue (n = 47): 17% | Toxicity requiring dose adjustments: increased blood creatinine (n = 47): 13% | Toxicity requiring dose adjustments: stomatitis (n = 47): 17% | Patients requiring 2 dose reductions (overall, n = 47): 19 patients | Patients requiring more than 2 dose reductions (overall, n = 47): 4 patients | Mean time to first dose reduction (overall, range 8–589 days): 46 days
